The text below walks through data of BindingDB's records for doi:10.1021/jm980334n (University of New Mexico School of Medicine, 1998).

Molecules are shown by their SMILES.

The target in the assay is L-lactate dehydrogenase (Plasmodium falciparum) (UniProt Q27743). Kind of assay: inhibitory activity against Plasmodium falciparum LDH (pLDH).
As usually defined, the Ki is the dissociation constant of the complex between target and ligand, obtained from inhibition or displacement. A higher Ki goes with a looser hold on the target. In turn, `Cc1cc2c(C)c(O)c(O)c(C(=O)O)c2cc1C` [2,3-Dihydroxy-4,6,7-trimethyl-naphthalene-1-carboxylic acid] had a Ki of 13 µM.

Turning to `Cc1ccc2c(C(=O)O)c(O)c(O)c(C)c2c1` [2,3-Dihydroxy-4,6-dimethyl-naphthalene-1-carboxylic acid], the Ki was 22 µM.

As for `Cc1cc2c(C(=O)O)c(O)c(O)c(C(C)C)c2cc1C` [2,3-Dihydroxy-4-isopropyl-6,7-dimethyl-naphthalene-1-carboxylic acid], the affinity, expressed as Ki, was 1 µM.

`Cc1cc2c(C(C)C)c(O)c(O)c(C(=O)O)c2cc1Cc1ccc(C(F)(F)F)cc1` [2,3-Dihydroxy-4-isopropyl-6-methyl-7-(4-trifluoromethyl-benzyl)-naphthalene-1-carboxylic acid] showed a Ki of 0.2 µM.

For the compound `Cc1ccc2c(C(=O)O)c(O)c(O)c(C(C)C)c2c1` [2,3-Dihydroxy-4-isopropyl-6-methyl-naphthalene-1-carboxylic acid], the affinity, expressed as Ki, was 2 µM. This Ki is about 10-fold higher than that of the compound before.

In the case of `CCCc1c(O)c(O)c(C(=O)O)c2ccc(C)cc12` [2,3-Dihydroxy-6-methyl-4-propyl-naphthalene-1-carboxylic acid], affinity was put at a Ki of 6 µM. Compared with the last compound, the Ki is about 3-fold higher.

With `Cc1cc2c(C)c(O)c(O)c(C(=O)O)c2cc1Cc1ccccc1` [7-Benzyl-2,3-dihydroxy-4,6-dimethyl-naphthalene-1-carboxylic acid], the Ki turned out to be 8 µM.

Regarding `Cc1cc2c(C(C)C)c(O)c(O)c(C(=O)O)c2cc1Cc1ccccc1` [7-Benzyl-2,3-dihydroxy-4-isopropyl-6-methyl-naphthalene-1-carboxylic acid], the Ki turned out to be 0.7 µM.
